Where a name gives a salt, the structure may show the parent alone.
Legend:
Ehlrich carcinoma cells = assay: Growth inhibition of transplanted Ehrlich carcinoma in mice (Experimental Example 1 repeated); assay type: in vivo, mouse; settings: mice with Ehrlich carcinoma; as Experimental Example 1: 0.5 mg/kg i.p. once daily for 20 days; day 35
Description: (§1) One×10^6 Sarcoma 180 cells were subcutaneously transplanted into the right groin of an ICR mouse weighing about 20 grams and starting 24 hours after transplantation, 0.5 mg/kg of the compound of Example 1 in distilled water for injection was intraperitoneally administered once daily for 20 consecutive days. On day 35 after transplantation, the tumorous node was incised, weighed and compared with the specimen of the control (without medication) group. The percent inhibition was 58% relative to the control.
The experiment described in Experimental Example 1 was repeated except that mice transplanted with Ehlrich carcinoma cells were employed.

Sarcoma 180 = assay: Growth inhibition of subcutaneously transplanted Sarcoma 180 in ICR mouse (tumor weight); assay type: in vivo; settings: 1×10^6 cells s.c., 0.5 mg/kg i.p. once daily for 20 consecutive days from 24 h, day 35
Description: as §1

L5178Y cells = assay: Inhibitory effect upon the multiplication of tumor cells (L5178Y); assay type: cell-based; settings: Mus musculus, RPMI1640 + 10% fetal calf serum, 48 hours, 37° C., concentration giving cell count of 50% of control, read-out: ED50 (the source's name)
Description: Inhibitory effect upon the multiplication of tumor cells
The inhibitory effects of compound (I) upon the multiplication of cells were detected using L5178Y cells (tumor cell) in RPMI1640 medium+10% fetal calf serum for 48 hours at 37° C.
The result was expressed in the concentration of the drug giving a cell count of 50% (ED50) with the average number of cells for the control (not medicated) group on the 2nd day being taken as 100%.

| SMILES | percent inhibition rate (tumor weight relative to control) (Ehlrich carcinoma cells) [%] | percent inhibition (tumor weight relative to control) (Sarcoma 180) [%] | IC50 (L5178Y cells) [mg/L] |
| --- | --- | --- | --- |
| CCCNCc1c[nH]c2nc(N)[nH]c(=O)c12 [Example 1, 2-amino-5-propylaminomethylpyrrolo[2,3-d]pyrimidin-4-one (dihydrochloride)] | 75 | 58 | – |
| Nc1nc2[nH]cc(CN3CCCCC3)c2c(=O)[nH]1 [Example 3, 2-amino-5-piperidinomethylpyrrolo[2,3-d]pyrimidin-4-one (dihydrochloride)] | – | – | 120 |
| Nc1nc2[nH]cc(CNC3CCCC3)c2c(=O)[nH]1 [Example 2, 2-amino-5-cyclopentylaminomethylpyrrolo[2,3-d]pyrimidin-4-one(dihydrochloride)] | – | – | 40 |
| Nc1nc2[nH]cc(CN[C@H]3C=C[C@H](O)[C@@H]3O)c2c(=O)[nH]1 [Q base, reference compound] | – | – | > 200 |
| Nc1nc2[nH]cc(CNCc3ccccc3)c2c(=O)[nH]1 [Example 4, 2-amino-5-benzylaminomethylpyrrolo[2,3-d]pyrimidin-4-one] | – | – | 30 |

Source: US4435569A, “5-[Substituted amino methyl]pyrrolo[2,3-d]pyrimidine-4-one” (Takeda Chemical Industries, Ltd., priority 1981, dated 1984)
